This note sets out measurements from patent US10030020B2, “Spirocycle compounds and methods of making and using same” (Abide Therapeutics, Inc., priority 2016, dated 2018).

Read-outs that look alike come from different tables or passages of the source.

The target of assay [1] is T1, ABHD6 (Mus musculus (Mouse), UniProt Q8R2Y0). Kind of assay: In vitro competitive activity-based protein profiling (mouse brain membrane fraction or cell lysates), ABHD6 band. The settings on record: for inhibition at 1 µM: read-out: ABHD6 % Inh 1 μM (mouse); for IC50: competitive ABPP. The assay is classed as biochemical. The procedure, abridged:
(§1)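 Residual hydrolase activity was measured as gel band fluorescence after FP-Rh labelling (30 min, 37° C) of proteomes pretreated 30 min at 37° C with inhibitor.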

In assay [2] the target is T2, MAGL (Mus musculus (Mouse), UniProt O35678). Description: In vitro competitive activity-based protein profiling (mouse brain membrane fraction or cell lysates), MAGL band. The assay is classed as biochemical. To be noted: for inhibition at 1 µM: read-out: MAGL % Inh 1 μM (mouse); for IC50: competitive ABPP. As for the experimental part:
In Vitro Competitive Activity-Based Protein Profiling.
Proteomes (mouse brain membrane fraction or cell lysates) (50 μL, 1.0 mg/mL total protein concentration) were preincubated with varying concentrations of inhibitors at 37° C. After 30 min, FP—Rh (1.0 μL, 50 μM in DMSO) was added and the mixture was incubated for another 30 min at 37° C. Reactions were quenched with SDS loading buffer (50 μL-4×) and run on SDS-PAGE.

Assay [3] has as its target T3, FAAH (Mus musculus (Mouse), UniProt O08914). Kind of assay: Mouse brain proteomes from inhibitor treated mice (oral gavage, sacrificed 4 h after administration, ABPP analysis), FAAH. It is filed as in vivo, mouse (C57Bl/6J). To be noted: 5 mg/kg oral gavage. Summed up: (§2)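 Oral dosing of C57Bl/6J wild-type mice at 5 mg/kg, brain collection 4 h afterwards, then ABPP of brain proteomes to give % target inhibition.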

Assay [4] concerns the target T2, MAGL. Kind of assay: Mouse brain proteomes from inhibitor treated mice (oral gavage, sacrificed 4 h after administration, ABPP analysis). The settings on record: 5 mg/kg oral gavage. The assay is classed as in vivo, mouse (C57Bl/6J). Summed up: as §2
Assay [5] has as its target T1, ABHD6. Kind of assay: Mouse brain proteomes from inhibitor treated mice (oral gavage, sacrificed 4 h after administration, ABPP analysis), ABHD6. The assay is classed as in vivo, mouse (C57Bl/6J). The settings on record: 5 mg/kg oral gavage. Summed up: as §2
The target of assay [6] is T3, FAAH. Kind of assay: In vitro competitive activity-based protein profiling (mouse brain membrane fraction or cell lysates), FAAH band. The assay is classed as biochemical. The settings on record: for inhibition at 1 µM: read-out: FAAH % Inh 1 μM (mouse); for IC50: competitive ABPP. Summed up: as §1
For assay [7], the target named is MAGL (Homo sapiens (Human), UniProt Q99685). Kind of assay: In vitro competitive activity-based protein profiling (human prefrontal cortex or cell membrane fractions; hMAGL expressed in HEK293T cells). The assay is classed as biochemical. Summed up:
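Human prefrontal cortex or cell membrane proteomes (1.0-2.0 mg/mL), or lysates of HEK293T cells expressing hMAGL diluted into mock proteome, preincubated with inhibitor 30 min at 37° C. FP-Rh or JW912 probe then added for 30 min at room temperature. Residual labeling resolved by SDS-PAGE.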

Where [8] appears, read: human proteome, competitive ABPP.

T2 sequence (O35678 whole entry): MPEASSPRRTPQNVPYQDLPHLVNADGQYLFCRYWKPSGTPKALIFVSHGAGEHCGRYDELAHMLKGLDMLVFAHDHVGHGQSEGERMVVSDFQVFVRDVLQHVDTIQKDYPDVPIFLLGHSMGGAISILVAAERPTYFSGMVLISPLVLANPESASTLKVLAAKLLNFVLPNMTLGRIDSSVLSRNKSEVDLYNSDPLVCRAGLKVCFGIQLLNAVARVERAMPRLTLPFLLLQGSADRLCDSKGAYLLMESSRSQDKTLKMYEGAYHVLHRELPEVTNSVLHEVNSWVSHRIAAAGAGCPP
T3 sequence (O08914 whole entry): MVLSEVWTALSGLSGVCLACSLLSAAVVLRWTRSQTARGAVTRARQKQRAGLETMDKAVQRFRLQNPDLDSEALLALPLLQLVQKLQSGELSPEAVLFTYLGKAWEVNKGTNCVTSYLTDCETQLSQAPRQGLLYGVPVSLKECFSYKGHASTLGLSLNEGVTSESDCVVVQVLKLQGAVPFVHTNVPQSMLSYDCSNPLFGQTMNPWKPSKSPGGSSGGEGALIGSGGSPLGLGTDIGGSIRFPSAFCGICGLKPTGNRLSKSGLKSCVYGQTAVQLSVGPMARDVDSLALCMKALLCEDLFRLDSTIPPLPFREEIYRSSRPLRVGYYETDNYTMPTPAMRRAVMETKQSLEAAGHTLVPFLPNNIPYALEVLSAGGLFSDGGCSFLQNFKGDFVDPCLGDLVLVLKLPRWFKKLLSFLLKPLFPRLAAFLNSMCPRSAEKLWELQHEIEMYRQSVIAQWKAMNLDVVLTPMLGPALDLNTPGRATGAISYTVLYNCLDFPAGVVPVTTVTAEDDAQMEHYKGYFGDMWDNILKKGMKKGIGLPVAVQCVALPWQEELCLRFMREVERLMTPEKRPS
T1 sequence (Q8R2Y0 whole entry): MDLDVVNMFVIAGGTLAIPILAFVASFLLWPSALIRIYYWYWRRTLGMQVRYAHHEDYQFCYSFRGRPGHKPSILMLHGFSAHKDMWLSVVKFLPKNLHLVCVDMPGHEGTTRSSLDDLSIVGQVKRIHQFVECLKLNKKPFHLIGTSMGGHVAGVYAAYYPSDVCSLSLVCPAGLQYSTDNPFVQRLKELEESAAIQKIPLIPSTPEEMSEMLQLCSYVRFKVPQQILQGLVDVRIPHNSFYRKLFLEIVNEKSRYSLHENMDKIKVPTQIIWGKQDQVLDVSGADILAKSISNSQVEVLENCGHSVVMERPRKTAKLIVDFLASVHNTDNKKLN
Sequence of MAGL (Homo sapiens (Human), UniProt Q99685) (Q99685 whole entry): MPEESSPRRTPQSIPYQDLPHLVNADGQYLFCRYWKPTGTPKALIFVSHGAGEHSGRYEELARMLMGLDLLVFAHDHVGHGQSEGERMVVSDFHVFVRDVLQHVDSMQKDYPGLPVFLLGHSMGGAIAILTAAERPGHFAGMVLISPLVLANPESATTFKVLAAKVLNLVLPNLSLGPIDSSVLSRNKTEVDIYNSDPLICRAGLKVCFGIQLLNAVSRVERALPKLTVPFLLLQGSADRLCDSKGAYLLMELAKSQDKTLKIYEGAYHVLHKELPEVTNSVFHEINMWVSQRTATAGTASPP

As to `O=C(O)C1CCN(c2cc(Cl)ccc2CN2CCCC23CCN(C(=O)OC(C(F)(F)F)C(F)(F)F)CC3)CC1` [Example 120, 1-(5-Chloro-2-((8-(((1,1,1,3,3,3-hexafluoropropan-2-yl)oxy)carbonyl)-1,8-diazaspiro[4.5]decan-1-yl)methyl)phenyl)piperidine-4-carboxylic acid], the inhibition at 1 µM on ABHD6 [1] (mouse proteome) is less than 25%; on MAGL [2] (mouse proteome), greater than 75%; at FAAH [6] (mouse proteome), less than 25%. The IC50 at ABHD6 [1] (mouse proteome) is greater than 1000 nM; at MAGL [2] (mouse proteome) it was less than 100 nM; on FAAH [6] (mouse proteome), greater than 1000 nM; at MAGL [7] (setting [8]), less than 100 nM. The “FAAH % Inh 5 mg/kg (mouse)” value on FAAH [3] is reported as “# (# is <25%)”. In addition, at MAGL [4], the “MAGL % Inh 5 mg/kg (mouse)” value is listed as “### (### is ≥75%)”. On ABHD6 [5], the “ABHD6 % Inh 5 mg/kg (mouse)” value is “# (# is <25%)”.

On to `O=C(O)C1CCN(c2cc(OC(F)(F)F)ccc2CN2CCCC23CCN(C(=O)OC(C(F)(F)F)C(F)(F)F)CC3)CC1` [Example 248], for which the inhibition at 1 µM was less than 25% at ABHD6 [1] (mouse), greater than 75% on MAGL [2] (mouse) and less than 25% on FAAH [6] (mouse). The “FAAH % Inh 5 mg/kg (mouse)” value at FAAH [3] is “# (# is <25%)”. For the same molecule, the “MAGL % Inh 5 mg/kg (mouse)” value on MAGL [4] is reported as “### (### is ≥75%)”. The “ABHD6 % Inh 5 mg/kg (mouse)” value on ABHD6 [5] is recorded as “# (# is <25%)”. Further, the half-maximal inhibitory concentration (IC50) on MAGL [7] (human) was less than 100 nM.

Take `O=C(O)C1CCN(c2cc(CN3CCCC34CCN(C(=O)OC(C(F)(F)F)C(F)(F)F)CC4)cc(C(F)(F)F)c2)CC1` [Example 123, 1-(3-((8-(((1,1,1,3,3,3-Hexafluoropropan-2-yl)oxy)carbonyl)-1,8-diazaspiro[4.5]decan-1-yl)methyl)-5-(trifluoromethyl)phenyl)piperidine-4-carboxylic acid]: the values for the inhibition at 1 µM at ABHD6 [1] (mouse proteome), on MAGL [2] (mouse proteome) and at FAAH [6] (mouse proteome) were less than 25%, greater than 75% and less than 25%, respectively. In addition, the IC50 on ABHD6 [1] (mouse proteome) was greater than 1000 nM; on MAGL [2] (mouse proteome), less than 100 nM; on FAAH [6] (mouse proteome), greater than 1000 nM; on MAGL [7] (setting [8]), less than 100 nM. For the same molecule, on FAAH [3], the “FAAH % Inh 5 mg/kg (mouse)” value is reported as “# (# is <25%)”. For the same molecule, the “MAGL % Inh 5 mg/kg (mouse)” value at MAGL [4] was “### (### is ≥75%)”. For the same molecule, the “ABHD6 % Inh 5 mg/kg (mouse)” value at ABHD6 [5] is reported as “## (## is equal to or greater than 25% but less than 75%)”.

Take `N#Cc1cc(CN2CCCC23CCN(C(=O)OC(C(F)(F)F)C(F)(F)F)CC3)cc(N2CCC(C(=O)O)CC2)c1` [Example 210]: the inhibition at 1 µM at ABHD6 [1] (mouse proteome) is less than 25%; at MAGL [2] (mouse proteome), greater than 75%; on FAAH [6] (mouse proteome), less than 25%. Also, the “FAAH % Inh 5 mg/kg (mouse)” value on FAAH [3] is recorded as “# (# is <25%)”. Moreover, the “MAGL % Inh 5 mg/kg (mouse)” value on MAGL [4] is recorded as “### (### is ≥75%)”. For the same molecule, the “ABHD6 % Inh 5 mg/kg (mouse)” value at ABHD6 [5] was “## (## is equal to or greater than 25% but less than 75%)”. The IC50 at MAGL [7] (setting [8]) was less than 100 nM.

In the case of `O=C(O)C1CCN(C(=O)c2cc(C(F)(F)F)ccc2CN2CCCC23CCN(C(=O)OC(C(F)(F)F)C(F)(F)F)CC3)CC1` [Example 281], the results for the inhibition at 1 µM at ABHD6 [1] (mouse), at MAGL [2] (mouse) and at FAAH [6] (mouse) were 25 to 75%, greater than 75% and less than 25%, respectively. Moreover, the “FAAH % Inh 5 mg/kg (mouse)” value at FAAH [3] is “# (# is <25%)”. Besides, the “MAGL % Inh 5 mg/kg (mouse)” value on MAGL [4] is reported as “# (# is <25%)”. Further, the “ABHD6 % Inh 5 mg/kg (mouse)” value at ABHD6 [5] is recorded as “# (# is <25%)”. Moreover, the concentration for half-maximal inhibition (IC50) at MAGL [7] (human) was less than 100 nM.

Regarding `O=C(O)C1CCN(Cc2cc(CN3CCCC34CCN(C(=O)OC(C(F)(F)F)C(F)(F)F)CC4)cc(C(F)(F)F)c2)C1` (stereo not drawn) [Example 253], the inhibition at 1 µM at ABHD6 [1] (mouse) was less than 25%; at MAGL [2] (mouse) it was greater than 75%; on FAAH [6] (mouse), less than 25%. Besides, the “FAAH % Inh 5 mg/kg (mouse)” value at FAAH [3] was “# (# is <25%)”. Further, the “MAGL % Inh 5 mg/kg (mouse)” value on MAGL [4] was “## (## is equal to or greater than 25% but less than 75%)”. The “ABHD6 % Inh 5 mg/kg (mouse)” value on ABHD6 [5] is given as “# (# is <25%)”. This molecule registered an IC50 on MAGL [7] (human) of less than 100 nM.

By IC50 is commonly meant the midpoint of a concentration-inhibition curve. Lower therefore signals higher potency.
